Source: US8669395B2, “Optically active 4-amino-3-(4-chlorophenyl)butanoic acid” (Sumitomo Chemical Company, Limited, priority 2009, dated 2014)

Experiments:
[1] = differential scanning calorimetry (DSC), Test Example 1; format: physicochemical; conditions: for Endothermic peak / Exothermic peak: DSC, 25 to 500° C., 10° C./minute, air-tightly closed SUS container
Description: About the DSC measurement, for example, a differential scanning calorimeter of an EXTER 6000 type, manufactured by SII Nano Technology Inc., is used to make it possible to make the measurement under the following conditions: […]
measuring temperature range: 25 to 500° C., temperature-raising rate: 10° C./minute, container: air-tightly closed SUS, sample amount: about 0.4 to 0.7 mg, reference: α-alumina having a weight of about 0.6 mg, and atmospheric gas flow rate: dried nitrogen, about 70 mL/minute.
About each of crystal A yielded according to the same process in Example 1, and crystal B yielded according to the same process in Comparative Example 1, a device manufactured by SII Nano Technology Inc., EXTER 6000, was used to measure the DSC thereof under differential scanning calorie analysis conditions described below.
(Differential Scanning Calorie Analysis Conditions)

[2] = solubility in 100 g of water, Test Example 2; format: physicochemical
Description: About each of crystal A yielded according to the same process in Example 1, and crystal B yielded according to the same process in Comparative Example 1, the solubility thereof in 100 g of water was measured.

Row | Endothermic peak [1] | Exothermic peak [1] | solubility in 100 g of water ([2]; 25° C.) | solubility in 100 g of water ([2]; 40° C.) | solubility in 100 g of water ([2]; 75° C.) | solubility in 100 g of water ([2]; 55° C.) | SMILES | thermal stability ([1]; concluded from the DSC endothermic and exothermic peaks, compared with crystal B)
1 | 203 °C | 386 °C | 0.88 g | 1.16 g | 2.20 g | – | NC[C@H](CC(=O)O)c1ccc(Cl)cc1 [Crystal A, (R)-4-amino-3-(4-chlorophenyl)butanoic acid] | far better in thermal stability than crystal B
2 | 187 °C | 349 °C | 1.98 g | – | 2.86 g | 2.59 g | NC[C@H](CC(=O)O)c1ccc(Cl)cc1 [Crystal B, (R)-4-amino-3-(4-chlorophenyl)butanoic acid, reference compound] | –
